Test systems include DU-145 prostate; HOP-62 NSCLC; MDA-MB-231 breast; NCI-H226 lung; OVCAR-5 ovarian; OVCAR-8 ovarian; RXF 393 renal; SF-295 CNS; SR leukemia; T-47D breast; OVCAR-3 ovarian.
Holding throughout (assay): NCI-60 cell line screen, 48 h

From PubChem BioAssay (NCI) come the findings set out here.

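A five-concentration, 48-hour dose response in 96-well plates underlies each endpoint, interpolated linearly between surrounding concentrations. TGI is the concentration that stops growth completely.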

Consider `O=C1CN(c2ccccc2)Cc2nc(Cl)ccc2N1`, for which the TGI with DU-145 prostate, in the experiment on HOP-62 NSCLC, in the experiment on MDA-MB-231 breast, with NCI-H226 lung, in the experiment with OVCAR-5 ovarian and in the experiment with OVCAR-8 ovarian was greater than 100 µM throughout. In addition, the TGI with RXF 393 renal, with SF-295 CNS, in the experiment on SR leukemia and with T-47D breast was greater than 100 µM throughout.

In the case of `CC1(C)OC(=O)C(C)(C)C(=O)O1`, the TGI in the experiment on DU-145 prostate, in the experiment with HOP-62 NSCLC, in the experiment with MDA-MB-231 breast, with NCI-H226 lung, in the experiment on OVCAR-5 ovarian and in the experiment with OVCAR-8 ovarian was greater than 100 µM each time. For the same molecule, the TGI in the experiment with SF-295 CNS, with SR leukemia and in the experiment with T-47D breast was greater than 100 µM in each case.

As to `CSc1ncnc2c1cnn2Cc1cnnn1COCC(O)CO` (centres undefined), the TGI in the experiment on DU-145 prostate, with HOP-62 NSCLC, with MDA-MB-231 breast, in the experiment on NCI-H226 lung, in the experiment on OVCAR-3 ovarian and with OVCAR-5 ovarian was greater than 100 µM each time. Further, the TGI in the experiment on OVCAR-8 ovarian, in the experiment with SF-295 CNS, in the experiment on SR leukemia and with T-47D breast was greater than 100 µM each time.

`O=C1N=C2SC=C(NC(=S)Nc3ccccc3)N2NC12c1ccccc1-c1ccccc12`: the TGI in the experiment on DU-145 prostate, in the experiment with HOP-62 NSCLC, in the experiment on MDA-MB-231 breast, in the experiment on NCI-H226 lung, in the experiment on OVCAR-5 ovarian and in the experiment with OVCAR-8 ovarian was greater than 10 µM throughout. For the same molecule, the TGI in the experiment on RXF 393 renal, with SF-295 CNS, with SR leukemia and in the experiment with T-47D breast was greater than 10 µM in each case.

As for `Brc1ccc(C2C3CSc4ccccc4C3=NN2c2ccccc2)cc1` (centres undefined), the TGI with DU-145 prostate, in the experiment with HOP-62 NSCLC, in the experiment with MDA-MB-231 breast, in the experiment with NCI-H226 lung, in the experiment on OVCAR-3 ovarian and in the experiment with OVCAR-8 ovarian was greater than 100 µM throughout. The TGI in the experiment with RXF 393 renal is greater than 100 µM; with SR leukemia it was greater than 100 µM; in the experiment on T-47D breast, 86.3 µM.

As to `CCOC(=O)N/N=C(/N)c1cccc(Br)c1`, the TGI in the experiment on DU-145 prostate, with HOP-62 NSCLC, in the experiment with MDA-MB-231 breast, with OVCAR-3 ovarian, in the experiment with OVCAR-5 ovarian and in the experiment on OVCAR-8 ovarian was greater than 100 µM each time. Moreover, the TGI in the experiment with RXF 393 renal, in the experiment on SF-295 CNS, in the experiment with SR leukemia and with T-47D breast was greater than 100 µM each time.

For the molecule `CC(C)Oc1c(C2(c3ccccc3)SCCCS2)c(=O)c1=O`, the TGI with DU-145 prostate, in the experiment with HOP-62 NSCLC, in the experiment on MDA-MB-231 breast, in the experiment on NCI-H226 lung, with OVCAR-3 ovarian and with OVCAR-5 ovarian was greater than 100 µM in each case. Moreover, the TGI with OVCAR-8 ovarian, in the experiment with RXF 393 renal, in the experiment with SF-295 CNS and with T-47D breast was greater than 100 µM throughout.

As to `O=c1[nH]nc(Cc2ccccc2)n1/N=C/c1cccs1`, the TGI in the experiment with DU-145 prostate, in the experiment with HOP-62 NSCLC, in the experiment on MDA-MB-231 breast, in the experiment with NCI-H226 lung, in the experiment with OVCAR-3 ovarian and in the experiment with OVCAR-5 ovarian was greater than 100 µM in each case. Further, the TGI in the experiment on OVCAR-8 ovarian, with RXF 393 renal, with SF-295 CNS and in the experiment on T-47D breast was greater than 100 µM throughout.

As for `C[C@@H](CC(O)C(O)C(C)(C)O)C1CCC23CC12CCC1[C@@]2(C)CCC(O)C(C)(C)C2CC(OC2OC(CO)C(O)C(O)C2O)[C@]13C` (some centres undefined), the TGI in the experiment on DU-145 prostate, with HOP-62 NSCLC, with MDA-MB-231 breast, in the experiment on NCI-H226 lung, with OVCAR-3 ovarian and with OVCAR-5 ovarian was greater than 10 µM in each case. For the same molecule, the TGI with OVCAR-8 ovarian, in the experiment on RXF 393 renal, with SF-295 CNS and with T-47D breast was greater than 10 µM in each case.

Consider `CC(C)C1CNC(=O)C2(C=NC(C(C)C)CNC(=O)C3(C=N1)CCCO3)CCCO2` (centres undefined), for which the TGI in the experiment on DU-145 prostate, in the experiment with HOP-62 NSCLC, with MDA-MB-231 breast, in the experiment with OVCAR-3 ovarian, in the experiment on OVCAR-8 ovarian and with RXF 393 renal was greater than 10 µM throughout. Besides, the TGI in the experiment with SF-295 CNS, in the experiment on SR leukemia and with T-47D breast was greater than 10 µM throughout.

For `Clc1ccc(Cl)c(N=Nc2cc3c4c(c2)CCN4CCC3)c1`, the TGI in the experiment on DU-145 prostate, in the experiment with HOP-62 NSCLC, in the experiment with MDA-MB-231 breast, in the experiment on NCI-H226 lung, in the experiment with OVCAR-3 ovarian and in the experiment on OVCAR-8 ovarian was greater than 10 µM throughout. Moreover, the TGI with RXF 393 renal, in the experiment with SF-295 CNS, with SR leukemia and with T-47D breast was greater than 10 µM each time.

Take `Cc1c(C)c2c(c(N)c1C#N)C(=O)N(O)C2=O`: the TGI in the experiment on DU-145 prostate, in the experiment on MDA-MB-231 breast, with NCI-H226 lung, in the experiment on OVCAR-3 ovarian, in the experiment with OVCAR-5 ovarian and in the experiment on OVCAR-8 ovarian was greater than 100 µM throughout. For the same molecule, the TGI with RXF 393 renal, in the experiment with SF-295 CNS, in the experiment on SR leukemia and in the experiment on T-47D breast was greater than 100 µM each time.

Take `Cn1c(=O)c2[nH]c(N=O)nc2n(C)c1=O`: the TGI in the experiment on DU-145 prostate, with HOP-62 NSCLC, in the experiment on MDA-MB-231 breast, with NCI-H226 lung, in the experiment with OVCAR-3 ovarian and in the experiment with OVCAR-5 ovarian was greater than 100 µM each time. Besides, the TGI with OVCAR-8 ovarian, in the experiment with RXF 393 renal, in the experiment with SF-295 CNS and with T-47D breast was greater than 100 µM throughout.

Turning to `[N-]=[N+]=Nc1ccccc1-c1ccccc1[N+](=O)[O-]`, the TGI with DU-145 prostate, with HOP-62 NSCLC, with MDA-MB-231 breast, with OVCAR-3 ovarian, in the experiment with OVCAR-5 ovarian and with OVCAR-8 ovarian was greater than 100 µM in each case. The TGI with RXF 393 renal, in the experiment on SF-295 CNS, with SR leukemia and in the experiment with T-47D breast was greater than 100 µM each time.

Regarding `CCCCOCCOCCOC1=CC(=O)c2c(O)ccc(O)c2C1=O`, the TGI turned out to be 3.1 µM in the experiment with DU-145 prostate; 3.22 µM with HOP-62 NSCLC; 3.86 µM in the experiment on MDA-MB-231 breast; 3.59 µM in the experiment with NCI-H226 lung; 3 µM in the experiment with OVCAR-3 ovarian; 3.63 µM in the experiment with RXF 393 renal. The results for the TGI in the experiment on SF-295 CNS, in the experiment with SR leukemia and with T-47D breast were 3.06 µM, greater than 10 µM and 6.16 µM, respectively.

Take `CN(C)CCN(C)P12(Oc3ccccc3O1)Oc1c(Cl)c(Cl)c(Cl)c(Cl)c1O2`: the TGI with DU-145 prostate, in the experiment with HOP-62 NSCLC, with MDA-MB-231 breast, with NCI-H226 lung, in the experiment on OVCAR-3 ovarian and in the experiment on OVCAR-5 ovarian was greater than 100 µM in each case. Besides, the TGI in the experiment on OVCAR-8 ovarian, in the experiment on SF-295 CNS, with SR leukemia and in the experiment on T-47D breast was greater than 100 µM in each case.

For `C1CNOCCCONCCCNOCCCONC1`, the TGI is greater than 100 µM with DU-145 prostate; greater than 100 µM in the experiment on HOP-62 NSCLC; 79.6 µM in the experiment with MDA-MB-231 breast; greater than 100 µM with NCI-H226 lung; greater than 100 µM with OVCAR-3 ovarian; greater than 100 µM with OVCAR-5 ovarian. In addition, the TGI with OVCAR-8 ovarian is greater than 100 µM; in the experiment on RXF 393 renal, 64.2 µM; in the experiment with SF-295 CNS it was greater than 100 µM; in the experiment on T-47D breast, 44.4 µM.

On to `FC(F)(F)c1ccccc1C1SCC2=Nc3ccccc3CN21` (centres undefined), for which the TGI in the experiment on DU-145 prostate was 25.4 µM; in the experiment with HOP-62 NSCLC, 23.1 µM; in the experiment on MDA-MB-231 breast it was greater than 100 µM; with NCI-H226 lung, 26.7 µM; with OVCAR-5 ovarian it was 26.6 µM; in the experiment with OVCAR-8 ovarian, 30.5 µM. Moreover, the TGI in the experiment with RXF 393 renal was 22 µM; in the experiment on SF-295 CNS, 26.2 µM; with SR leukemia, greater than 100 µM; in the experiment with T-47D breast, 38.4 µM.

On to `COC(=O)c1ccc2c(c1)CC1(C2)Cc2cc3c(cc2C1)CCC3`, for which the TGI in the experiment on DU-145 prostate, with HOP-62 NSCLC, in the experiment on MDA-MB-231 breast, with OVCAR-3 ovarian, with OVCAR-5 ovarian and in the experiment with OVCAR-8 ovarian was greater than 100 µM throughout. Besides, the TGI with RXF 393 renal, in the experiment with SF-295 CNS, with SR leukemia and in the experiment with T-47D breast was greater than 100 µM throughout.

For the molecule `COc1ccc(Nc2nc3ccccc3n3cccc23)cc1OC`, the TGI was 35.6 µM in the experiment with DU-145 prostate; 32.7 µM with HOP-62 NSCLC; 40.1 µM in the experiment on MDA-MB-231 breast; 42.8 µM with OVCAR-3 ovarian; greater than 100 µM in the experiment on OVCAR-5 ovarian; 29.5 µM in the experiment on OVCAR-8 ovarian. The TGI worked out at 33.1 µM in the experiment with RXF 393 renal, 35.4 µM in the experiment with SF-295 CNS, 37.7 µM with SR leukemia and 15.2 µM in the experiment on T-47D breast.

As to `COC(=O)C1(NC(=O)C(Cc2ccccc2)N(C(=O)OC(C)(C)C)C(=O)OC(C)(C)C)CCCC1` (centres undefined), the TGI in the experiment with DU-145 prostate, in the experiment with HOP-62 NSCLC, in the experiment with MDA-MB-231 breast, with NCI-H226 lung, with OVCAR-5 ovarian and with OVCAR-8 ovarian was greater than 100 µM throughout. The TGI is greater than 10 µM in the experiment on SR leukemia and greater than 100 µM with T-47D breast.
